The subject of this assay is PNC in PC3M cells. Briefly: PNC disassembly assay in PC3M cells. Type of assay: cell-based. To be noted: PC3M (PTB-GFP) cells. The method, then: The PNC disassembly assay has been previously described. […] Cells were fixed with […] for 10 min at room temperature. […] Confocal images were obtained using Opera Phoenix (PerkinElmer, Waltham, MA) and a 20× objective lens.
To examine whether measured intratumor metarrestin concentrations measured in PK studies track with intracellular metarrestin concentration, we first decided to synthesize a fluorophore conjugated analog of metarrestin. Structure activity relationship studies around the structure of metarrestin were conducted in a high throughput assay that measured in dose dependence the ability of compounds to reducing PNC prevalence in PC3M cells. […] This analog was chemically conjugated to the fluorophore boron-dipyrromethene (BODIPY®) to track the disassembly of the PNC in PC3M cancer cells by confocal microscopy (Suppl. Figure 2). […] Next, to examine cellular metarrestin levels in relation to extracellular concentrations, we exposed KPC and PC3M cells at 1 and 10 µM concentrations of metarrestin and harvested cells at different timepoints.

In general, IC50 refers to the concentration at which inhibition is half-maximal.

`N=c1c2c(-c3ccccc3)c(-c3ccccc3)n(Cc3ccccc3)c2ncn1C1CCOCC1` [NCGC00244845] gave an IC50 of 89 nM.
